These results are taken from patent US20260373101A1, “POLYAMINATED FATTY ACIDS FOR USE AS POTENTIATORS OF ANTIBACTERIAL ACTIVITY” (priority 2023, published 2026).

Format in all cases: cell-based
Experiment [1] deals with P. aeruginosa ATCC27853. In words: Intrinsic antibacterial activity, standard microdilution (CLSI). To be noted: Pseudomonas aeruginosa; P. aeruginosa ATCC27853, compound alone, 24 h, 37 °C. The method, then: (§1) The bacterial strains used in the examples below are the reference strains P. aeruginosa ATCC27853, E. coli ATCC25922, K. pneumoniae ATCC51296, S. aureus ATCC25923 and E. faecalis ATCC29212. The bacterial strains were previously stored in 15% (v/v) glycerol at −80 °C for cryoprotection. One colony of the fresh culture of each strain was incubated in a culture tube containing 3 ml of Mueller-Hinton broth (MH2) at 37 °C overnight with agitation. This suspension was used for inoculum preparation.
(§2) The antibacterial activity of said polyaminated fatty acid compounds was measured using a standard microdilution test based on Clinical and Laboratory Standards Institute (CLSI) guidelines. This method was slightly modified by increasing the assay volumes to 200 μl so as to improve reproducibility.
(§3) A negative control which corresponds to 2 ml of sterile culture medium and a positive control which corresponds to a mixture of 1980 μl of culture medium and 20 μl of bacterial suspension from a thawed biological strain (biological strains are stored at −80 °C in glycerol) were prepared.
(§4) The tubes were incubated in an incubator shaker “Infors” at 37 °C for 24 hours at 100 round per minute (rpm).
(§5) The polyaminated fatty acid compounds to be tested were prepared in water at a concentration of 10 mM.
(§6) The required volume of the microbial suspension to be inoculated was calculated for an optical density (OD) measured corresponding to a value equal to 0.01 in each well by using a spectrophotometer at 600 nm. In the microplate, the first row corresponded to the negative control (200 μl of sterile culture medium in each well), the second row to the positive control (seeded culture medium), the third row was loaded twice with bacterial suspension and with 8 μl of a given polyaminated fatty acid compound in each well. Subsequently, a half-fold cascade dilution was performed from this line. The first column was used as an inhibition control. A sterile filter was then placed on the microplate allowing the passage of gases but not contaminants. The microplate was incubated at 37 °C in a humid atmosphere for 24 hours. After 24 hours of incubation, an optical density measurement was performed by taking 100 μl of the bacterial suspension diluted in 900 μl of sterile culture medium.
(§7) The medium used was Mueller-Hinton medium (MH) for bacteria. All tests were performed in duplicate.
(§8) Table 1 below reports the intrinsic antibacterial activity of some polymaminated fatty acids prepared in example 1 (MIC in μM) as well as their toxicity towards eucaryotic cells (IC50 in μM).
Background: Dilution methods test growth across graded concentrations, often in twofold steps.

For experiment [2], the system named is S. aureus ATCC25923. The description is as above. The settings on record: Staphylococcus aureus; S. aureus ATCC25923, compound alone, 24 h, 37 °C. The method, then: as §1, §2, §3, §4, §5, §6, §7, §8
Experiment [3] relates to E. coli ATCC28922. Described as above. The settings on record: Escherichia coli, ATCC28922, 24 h.
The subject of experiment [4] is Chinese hamster ovary cells (CHO-K1). In words: Toxicity on mammalian cells, WST1 assay. The settings on record: Cricetulus griseus; CHO-K1 cell viability, WST1, 24 h. The protocol:
The WST1 assay was used to measure the cytotoxic activity of the polyaminated fatty acid compounds. It is a colorimetric assay that measures viability and cell proliferation rate. It is based on the cleavage of colorless tetrazolium salts WST-1 (4-[3-(4-iodophenyl)-2-(4-nitrophenyl)-2H-5-tetrazolio]-1,3-benzene disulfonate) by mitochondrial dehydrogenases into yellow formazan derivative, quantifiable by spectrophotometry at 420-480 nm.
The WST1 assay was performed on Chinese hamster ovary cells. CHO-K1 cells (ATCC, USA) were maintained in culture in “Mac Coy's 5A” medium supplemented with 10% fetal calf serum, 2 mM L-glutamine and streptomycin penicillin mixture (100 U/ml: 10 μg/ml). Incubation is carried out at 37 °C under CO2 enriched atmosphere (5% by volume) and subcultured every two days.
Cells are transferred to 96-well plates (25,000 cells/ml) in complete “Mac Coy's 5A medium”, and maintained for 24 h at 37 °C under a humid CO2-enriched atmosphere (5% by volume). Increasing concentrations of given polyaminated fatty acid compounds are added to the wells in duplicate assays and 8 growth controls containing cells in medium alone are included in each assay run. After 24 hours at 37 °C (5% CO2), the culture medium is removed, the cells are rinsed in phosphate buffer (PBS) and 50 μL of PBS containing 10% WST1 reagent is added to each well. After 20 minutes of incubation at 37 °C, the results are read by spectrophotometry at 450 nm.
The results are expressed as dose-response relationships, modeled by a non-linear regression analysis using TableCurve software. The 50% Inhibitory Concentration (IC50) represents the concentration of polyaminated fatty acid compound capable of reducing cell viability by 50%.
On the technique in general: Tetrazolium assays rely on reduction of a dye to a coloured formazan, in cell work by metabolically active cells.

The subject of experiment [5] is E. faecalis ATCC29212. In words: Intrinsic antibacterial activity, standard microdilution (CLSI). To be noted: Enterococcus faecalis; E. faecalis ATCC29212, compound alone, 24 h, 37 °C. The protocol: as §1, §2, §3, §4, §5, §6, §7, §8
Experiment [6] deals with P. aeruginosa ATCC27853. In words: Antibacterial activity in combination with doxycycline. To be noted: Pseudomonas aeruginosa, 24 h. The protocol: 100 μl of a liquid culture medium is deposited in each well of a 96-well microplate, and then inoculated with the bacterial suspension of example 2.1 prepared for the positive control. The volume needed to inoculate is calculated for an OD of 0.01 which corresponds to approximately 5,106 bacteria in each well. In this plate, the first row corresponds to a negative control (200 μl of sterile culture medium in each well), the second row to a positive control (100 μl of sterile culture medium with 100 μl of the bacterial suspension), the third row contains 192 μl of culture medium and 8 μl of polyaminated fatty acid compound to be tested in each well. Subsequently, a cascade dilution is performed from this line. Next, 3-8 μl of a doxycycline solution (1 mg dissolved in 20 ml) is added to each well of the lines to obtain a final antibiotic concentration of 2 μg/ml. Then, 92 μl of bacterial suspension is added to lines 3 to 8. The MIC with a concentration of doxycycline of 2 μg/ml in the presence of X μg/ml of polyaminated fatty acid compound is determined after 24 hours of incubation at 37 °C in a humid atmosphere.
The table 2 below reports the antibacterial activity (MIC in μM) of a combination of some polyaminated fatty acids prepared in example 1 with two antibacterial drugs doxycycline and erythromycin. […] On the Gram-negative strain of E. coli ([…]), erythromycin has a MIC of 50 μg/ml.

The test system of experiment [7] is E. coli AG-100A. In words: Potentiation of known antibiotics (MIC of antibiotic alone or with PAFA). To be noted: Escherichia coli, AG100A, 24 h. The protocol: (§9) 100 μl of a liquid culture medium is deposited in each well of a 96-well microplate, and then inoculated with the bacterial suspension of example 2.1 prepared for the positive control. The volume needed to inoculate is calculated for an OD of 0.01 which corresponds to approximately 5,106 bacteria in each well. In this plate, the first row corresponds to a negative control (200 μl of sterile culture medium in each well), the second row to a positive control (100 μl of sterile culture medium with 100 μl of the bacterial suspension), the third row contains 192 μl of culture medium and 8 μl of an antibiotic solution (10 mg/ml) to be tested in each well. Subsequently, a cascade dilution is performed from this line. Next, 10 μl of a fatty acid solution (10 μM final concentration) is added to each well of the lines. Then, 90 μl of bacterial suspension is added to lines 3 to 8. The MIC of the antibiotic tested is determined after 24 hours of incubation at 37 °C in a humid atmosphere.
(§10) The table 3 below reports the antibacterial activity (MIC in μg/mL) of a combination of some polyaminated fatty acids prepared in example 1 with various antibacterial drugs: doxycycline (DOX), tetracycline (TET), oxytetracycline (OXY) and minocycline (MINO), against various bacterial strains of P. aeruginosa (PA01, PA0509, and PA263), and of E. coli (AG-100 and AG-100A).

Experiment [8] has as its system E. coli AG-100. The experiment is described as above. The settings on record: Escherichia coli, AG100, 24 h. The method, then:
as §9, §10

Experiment [9] concerns P. aeruginosa PA01. The description is as above. The settings on record: Pseudomonas aeruginosa, PA01, 24 h. The method, then:
as §9, §10

The test system of experiment [10] is P. aeruginosa PA0509. The description is as above. To be noted: Pseudomonas aeruginosa, PA0509, 24 h. The protocol: as §9, §10
Experiment [11] has as its system P. aeruginosa PA263. The experiment is described as above. The settings on record: Pseudomonas aeruginosa, PA263, 24 h, 24 h. The protocol:
as §9, §10

[12] abbreviates: P. aeruginosa ATCC27853 + Doxycycline (2 μg/ml).

≈ marks a conversion by molar mass, not a printed value. A value given as a limit tells only on which side of the number the result lay.

One may read the MIC as the least concentration at which growth counts as inhibited. The IC50 is the midpoint of a concentration-inhibition curve. As for `CCCCC/C=C\C/C=C\CCCCCCCC(=O)NCCCN` [PAFA7], the MIC in experiment [1] is more than 200 µM; in experiment [2], 50 µM (≈ 16.8 µg/mL); in experiment [3], 100 µM (≈ 33.7 µg/mL). This compound also came in with an IC50 in [4] of 168 µM.
In the same order, the values of `CCCCCCCC/C=C\CCCCCCCC(=O)NCCCNCCCCNCCCN` [PAFA1] are more than 200 µM, more than 200 µM, more than 200 µM and 152 µM.
With `CCCCC/C=C\C/C=C\CCCCCCCC(=O)NCCCN(C)CCCN` [PAFA9], the MIC in experiment [5] came out at 50 µM (≈ 20.4 µg/mL); in experiment [1], 200 µM (≈ 81.5 µg/mL); in [2] it was 50 µM (≈ 20.4 µg/mL); in [3] it was 25 µM (≈ 10.2 µg/mL); in experiment [6] (setting [12]), 25 µM. Besides, the IC50 in experiment [4] amounted to 84 µM.
`CCCCC/C=C\C/C=C\CCCCCCCC(=O)NCCCCN` [PAFA8]: the MIC is more than 200 µM in experiment [5], more than 200 µM in experiment [1], 200 µM (≈ 70.1 µg/mL) in experiment [2] and more than 200 µM in [3].
For `CCCCC/C=C\C/C=C\CCCCCCCC(=O)NCCNCCNCCN` [PAFA12], the MIC in [5] is 100 µM (≈ 40.9 µg/mL); in [1], 100 µM (≈ 40.9 µg/mL); in [2] it was 200 µM (≈ 81.7 µg/mL); in [3], 50 µM (≈ 20.4 µg/mL); in experiment [6] (setting [12]), 50 µM. The same compound showed an IC50 in experiment [4] of 166 µM.
Take `C[C@H]1c2cccc(O)c2C(=O)C2=C(O)[C@]3(O)C(=O)C(C(N)=O)=C(O)[C@@H](N(C)C)[C@@H]3[C@@H](O)[C@@H]21` [DOX, doxycycline]: the MIC in experiment [6] (antibiotic alone, P. aeruginosa ATCC27853) is 32 µg/mL; in experiment [7] (Antibiotic alone), 0.5 µg/mL; in [7] (MIC of antibiotic, +PAFA10 (10 μM)), 0.25 µg/mL; in experiment [7] (MIC of antibiotic, +PAFA11 (10 μM)), 0.25 µg/mL; in [7] (MIC of antibiotic, +PAFA14 (10 μM)), 0.008 µg/mL; in [8] (AG-100, Antibiotic alone), 1 µg/mL. The MIC in experiment [8] (MIC of antibiotic, AG-100, +PAFA10 (10 μM)) was determined as 0.25 µg/mL; in experiment [8] (MIC of antibiotic, AG-100, +PAFA11 (10 μM)), 0.25 µg/mL; in experiment [8] (MIC of antibiotic, AG-100, +PAFA14 (10 μM)) it was 0.008 µg/mL; in [9] (MIC of antibiotic, PA01, +PAFA10 (10 μM)), 2 µg/mL; in experiment [9] (MIC of antibiotic, PA01, +PAFA11 (10 μM)), 2 µg/mL; in [9] (MIC of antibiotic, PA01, +PAFA14 (10 μM)) it was 0.125 µg/mL. The MIC in [9] (PA01, Antibiotic alone) was 32 µg/mL; in experiment [10] it was 1 µg/mL; in experiment [10] (MIC of antibiotic, PA0509, +PAFA10 (10 μM), 24 h), 0.25 µg/mL; in experiment [10] (MIC of antibiotic, PA0509, +PAFA11 (10 μM), 24 h) it was 0.25 µg/mL; in [10] (MIC of antibiotic, PA0509, +PAFA14 (10 μM), 24 h) it was 0.125 µg/mL; in experiment [11] (MIC of antibiotic, PA263, +PAFA10 (10 μM)), 8 µg/mL. In addition, the MIC in experiment [11] (MIC of antibiotic, PA263, +PAFA11 (10 μM)) amounted to 4 µg/mL; in experiment [11] (MIC of antibiotic, PA263, +PAFA14 (10 μM)) it was 1 µg/mL; in experiment [11] (PA263, Antibiotic alone), 32 µg/mL.
Turning to `CCCCCCCCCCCCCCCC(=O)NCCCNCCCN` [PAFA3], the MIC in experiment [1] was more than 200 µM; in [2] it was more than 200 µM; in [3], 200 µM (≈ 73.9 µg/mL). In [4], this compound returned an IC50 of 56 µM.
As to `CCCCC/C=C\C/C=C\CCCCCCCC(=O)NCCCNCCCNCCCN` [PAFA13], the MIC was found to be 200 µM (≈ 90.2 µg/mL) in experiment [1], 50 µM (≈ 22.5 µg/mL) in experiment [2] and 100 µM (≈ 45.1 µg/mL) in [3]. The compound also yielded an IC50 in experiment [4] of 465 µM.
On to `CCCCCCCCCCCCCCCC(=O)NCCCNCCCCNCCCN` [PAFA4], for which the MIC in experiment [1], in [2] and in [3] was more than 200 µM throughout. The IC50 in experiment [4] was determined as 268 µM.
